# Assay results as given in PubChem BioAssay (NCI).
#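 Five concentrations, 48 hours, 96-well plates. Definition used: TGI = concentration required for complete inhibition of growth.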 Where a SMILES comes first, the peptide text is derived from it. The star is where a group is joined. X36 = O=C(c1ccc(-c2ccc(Cl)cc2Cl)o1)*
# Key:
# Test in all cases: growth of human tumour cells (NCI), 48 h
# PC-3 prostate = system: PC-3 prostate
# IGROV1 ovarian = system: IGROV1 ovarian
# MDA-N = system: MDA-N
# T-47D breast = system: T-47D breast
# CCRF-CEM leukemia = system: CCRF-CEM leukemia
# SR leukemia = system: SR leukemia
# HS 578T breast = system: HS 578T breast
# SNB-75 CNS = system: SNB-75 CNS
# TK-10 renal = system: TK-10 renal
# SNB-19 CNS = system: SNB-19 CNS
# MOLT-4 leukemia = system: MOLT-4 leukemia
SMILES,TGI (PC-3 prostate),TGI (IGROV1 ovarian),TGI (MDA-N),TGI (T-47D breast),TGI (CCRF-CEM leukemia),TGI (SR leukemia),TGI (HS 578T breast),TGI (SNB-75 CNS),TGI (TK-10 renal),TGI (SNB-19 CNS),TGI (MOLT-4 leukemia)
CCC1(C(=O)OC(C)(C)C)OC12C(C)CCCC2C (configuration not stated),> 100 µM,> 100 µM,> 100 µM,> 100 µM,39.8 µM,38.3 µM,> 100 µM,97.7 µM,> 100 µM,> 100 µM,41.2 µM
COc1ccc(Nc2nc(NS(=O)(=O)c3cc(C)c(Cl)cc3S)n[nH]2)cc1,> 100 µM,> 100 µM,> 100 µM,> 100 µM,> 100 µM,> 100 µM,> 100 µM,> 100 µM,> 100 µM,> 100 µM,> 100 µM
CCc1ccc2oc(-c3cc(O)c(-c4nc5cc(CC)ccc5o4)cc3O)nc2c1,> 100 µM,> 100 µM,> 100 µM,> 100 µM,> 100 µM,> 100 µM,> 100 µM,> 100 µM,> 100 µM,> 100 µM,> 100 µM
COC(=O)[C@H](Cc1ccccc1)NC(=O)[C@H](Cc1ccccc1)NC(=O)[C@@H]1CCCN1C(=O)N[C@H]1C2C=CC(C2)C1C(=O)N1CCC[C@H]1C(=O)N[C@@H](C)C(=O)N[C@H](C(=O)OC)C(C)C (some centres not stated),> 100 µM,> 100 µM,> 100 µM,> 100 µM,56.4 µM,> 100 µM,> 100 µM,> 100 µM,> 100 µM,> 100 µM,85.6 µM
Cc1ccc([C@H]2CC(=O)C[C@H](c3ccc(C)cc3)C23C(=O)c2ccccc2C3=O)cc1,84.5 µM,> 100 µM,> 100 µM,> 100 µM,59.9 µM,34.3 µM,58.7 µM,34.1 µM,> 100 µM,79.7 µM,> 100 µM
CC1Cn2c(nc3ccccc32)NC1=O (configuration not stated),> 100 µM,> 100 µM,> 100 µM,> 100 µM,> 100 µM,> 100 µM,> 100 µM,> 100 µM,> 100 µM,> 100 µM,> 100 µM
O=C(O)c1ccc(S(=O)(=O)c2ccccc2[N+](=O)[O-])cc1,> 10 µM,> 10 µM,> 10 µM,> 10 µM,> 10 µM,> 10 µM,> 10 µM,> 10 µM,> 10 µM,> 10 µM,> 10 µM
Cc1ccc2nc(Cl)c(/C=N/N3C(=O)/C(=C/c4ccccc4S)N=C3c3ccccc3)cc2c1,> 100 µM,> 100 µM,40.5 µM,> 100 µM,> 100 µM,60.8 µM,58 µM,86.5 µM,> 100 µM,> 100 µM,15.1 µM
O=C1c2ccccc2-c2nc(-c3cccc([N+](=O)[O-])c3)nnc21,> 100 µM,> 100 µM,5.49 µM,> 100 µM,> 100 µM,> 100 µM,> 100 µM,59 µM,39.5 µM,> 100 µM,> 100 µM
C1CNCCNCCN1,> 100 µM,> 100 µM,> 100 µM,> 100 µM,> 100 µM,> 100 µM,> 100 µM,–,> 100 µM,> 100 µM,> 100 µM
CCCCCC(=O)NC(=S)Nc1nn[nH]n1,> 100 µM,> 100 µM,> 100 µM,> 100 µM,> 100 µM,> 100 µM,> 100 µM,> 100 µM,> 100 µM,> 100 µM,> 100 µM
CN(O)C(=O)c1cccc(Cl)c1,> 100 µM,> 100 µM,> 100 µM,> 100 µM,> 100 µM,> 100 µM,> 100 µM,> 100 µM,> 100 µM,> 100 µM,> 100 µM
O=c1oc2ccccc2c(Nc2ccc3c(c2)Oc2ccccc2O3)c1[N+](=O)[O-],32.5 µM,48.9 µM,> 100 µM,79.1 µM,> 100 µM,> 100 µM,82.8 µM,30.2 µM,40.1 µM,40.4 µM,> 100 µM
C[C@H](N)C(=O)Nc1ccc(-c2nc3ccccc3s2)cc1,63.7 µM,40.4 µM,38.4 µM,36 µM,24.8 µM,31.2 µM,> 100 µM,41.6 µM,60.8 µM,49.6 µM,31.4 µM
Cc1ccn2c(=O)cc(-c3ccccc3)nc2c1,> 100 µM,> 100 µM,> 100 µM,> 100 µM,> 100 µM,> 100 µM,> 100 µM,> 100 µM,> 100 µM,> 100 µM,> 100 µM
N#C/C(=C\n1ccc(=O)[nH]c1=S)C(N)=O,> 100 µM,> 100 µM,> 100 µM,> 100 µM,> 100 µM,> 100 µM,> 100 µM,> 100 µM,–,> 100 µM,> 100 µM
O=c1c2c([N+](=O)[O-])cccc2nc2[nH]c3ccccc3n12,> 75 µM,37.1 µM,> 75 µM,63.4 µM,> 75 µM,> 75 µM,> 75 µM,–,51.6 µM,> 75 µM,> 75 µM

SMILES,TGI (PC-3 prostate),TGI (IGROV1 ovarian),TGI (MDA-N),TGI (T-47D breast),TGI (CCRF-CEM leukemia),TGI (SR leukemia),TGI (HS 578T breast),TGI (SNB-75 CNS),TGI (TK-10 renal),TGI (SNB-19 CNS),TGI (MOLT-4 leukemia)
CCC(C#N)NC(=O)NC(C#N)CC (configuration not stated),> 100 µM,> 100 µM,> 100 µM,> 100 µM,> 100 µM,> 100 µM,> 100 µM,–,> 100 µM,> 100 µM,> 100 µM
Nc1cccc(Nc2nc3ccccc3nc2NS(=O)(=O)c2ccccc2)c1,49.7 µM,86.9 µM,> 100 µM,> 100 µM,46.7 µM,57.8 µM,> 100 µM,> 100 µM,> 100 µM,62.2 µM,48.9 µM
CCOC(=O)/C=C(/C(=O)OCC)n1ccc(N)nc1=O,> 100 µM,> 100 µM,> 100 µM,> 100 µM,76 µM,> 100 µM,> 100 µM,> 100 µM,> 100 µM,> 100 µM,> 100 µM
Cc1ccc(S(=O)(=O)OCC(=O)O)cc1,> 100 µM,> 100 µM,> 100 µM,> 100 µM,> 100 µM,> 100 µM,> 100 µM,–,> 100 µM,> 100 µM,> 100 µM
CCn1nc2c3c(ncn3C(C)(C)O2)c1=O,> 100 µM,> 100 µM,> 100 µM,> 100 µM,> 100 µM,> 100 µM,> 100 µM,–,> 100 µM,> 100 µM,> 100 µM
Cc1ccc(-c2cc(N)n(-c3nc4c(c(=O)n(C)c(=O)n4C)n3C)n2)cc1,> 100 µM,> 100 µM,> 100 µM,> 100 µM,> 100 µM,> 100 µM,> 100 µM,–,> 100 µM,> 100 µM,> 100 µM
Cc1cc(C)cc(Nc2cc(=O)[nH]c(=O)[nH]2)c1,> 100 µM,> 100 µM,> 100 µM,> 100 µM,> 100 µM,> 100 µM,> 100 µM,> 100 µM,> 100 µM,> 100 µM,> 100 µM
O=c1c2ncn(COCCCl)c2n(-c2ccccc2)c(=S)n1-c1ccccc1,> 100 µM,> 100 µM,> 100 µM,> 100 µM,> 100 µM,> 100 µM,> 100 µM,> 100 µM,> 100 µM,> 100 µM,> 100 µM
Cc1ccc2c(=O)cc(-c3cccs3)[nH]c2n1,> 95.8 µM,> 100 µM,3.78 µM,> 67.7 µM,> 87.6 µM,> 100 µM,> 71.4 µM,63.3 µM,> 100 µM,82.2 µM,> 100 µM
C/C=C/C(O)P1(=O)N(Cc2ccccc2)[C@@H]2CCCC[C@H]2N1Cc1ccccc1 (some centres not stated),> 25 µM,> 25 µM,> 25 µM,> 25 µM,> 25 µM,> 25 µM,> 25 µM,> 25 µM,> 25 µM,> 25 µM,> 25 µM
CCC(C)C(NC(=O)CNC(=O)C(Cc1ccccc1)NC(=O)C1CCCN1C(=O)c1ccc(-c2ccc(Cl)cc2Cl)o1)C(=O)OC (configuration not stated) (X36-PFGI-OMe; configuration not given here),49.1 µM,> 100 µM,> 100 µM,> 100 µM,> 100 µM,95.6 µM,> 100 µM,69.4 µM,> 100 µM,> 100 µM,> 100 µM
COc1ccc(/C=N/N=C(\N)NO)c(O)c1,> 10 µM,> 10 µM,> 10 µM,> 10 µM,> 10 µM,> 10 µM,> 10 µM,2.42 µM,> 10 µM,> 10 µM,> 10 µM
CC1=NN2C(=N)/C(=C/c3ccco3)C(=O)N=C2S1,> 100 µM,> 100 µM,> 100 µM,> 100 µM,> 100 µM,> 100 µM,> 100 µM,> 100 µM,> 100 µM,> 100 µM,> 100 µM
CCC1(C)N=C(c2cnccn2)NN1c1ccc(Cl)cc1 (configuration not stated),> 100 µM,> 100 µM,> 100 µM,74.5 µM,59.9 µM,76.2 µM,> 100 µM,> 100 µM,> 100 µM,> 100 µM,> 100 µM
C=CCCC(=O)CC(O)(C(F)(F)F)C(F)(F)F,> 100 µM,> 100 µM,> 100 µM,> 100 µM,> 100 µM,> 100 µM,> 100 µM,> 100 µM,> 100 µM,> 100 µM,> 100 µM
O=c1[nH]/c(=C/c2ccc(OCc3ccccc3)cn2)c(=O)[nH]/c1=C/c1ccc(O)cc1,> 100 µM,13.4 µM,0.591 µM,> 63.8 µM,> 100 µM,4.88 µM,> 100 µM,3.05 µM,3.03 µM,> 100 µM,1.65 µM
CC(=O)O[C@H]1CC[C@@]2(C)C(=CC[C@H]3[C@@H]4C[C@H](N5CCCC5)[C@H](OC(C)=O)[C@@]4(C)CC[C@@H]32)C1,> 100 µM,> 100 µM,> 84.4 µM,> 100 µM,> 100 µM,> 100 µM,> 100 µM,> 100 µM,> 100 µM,> 100 µM,> 100 µM
